Measured values published in ChEMBL document CHEMBL1151699, “Synthesis and biological evaluation of guanylhydrazone coactivator binding inhibitors for the estrogen receptor” (Bioorg Med Chem, 2008).
Calls of active or inactive are those of the source. The calls are words filed in the database; no cut-off is given here.

Columns and labels:
[1] = molecular target: Estrogen receptor alpha (Homo sapiens) (UniProt P03372); assay: Inhibition of estradiol-induced coactivator peptide SRC1 binding to estrogen receptor alpha expressed in human HEC1 cells at 20 uM after 24 hrs by beta-galactosidase based mammalian two-hybrid assay; design: scale not given: the % may be the effect or the level left; settings: HEC-1
[2] = molecular target: Estrogen receptor alpha (Homo sapiens) (UniProt P03372); assay: Antagonist activity at estrogen receptor alpha expressed in human HEC1 cells assessed as inhibition of estradiol-induced transcriptional activity at 20 uM after 24 hrs by beta-galactosidase reporter gene assay; design: scale not given: the % may be the effect or the level left; settings: HEC-1
Estrogen receptor [3] = molecular target: T1, Estrogen receptor (Homo sapiens, UniProt P03372); assay: Inhibition of estradiol-induced coactivator peptide SRC1 binding to estrogen receptor alpha expressed in human HEC1 cells after 24 hrs by luciferase based mammalian two-hybrid assay; format: cell-based, HEC-1
T1 sequence (P03372 whole entry): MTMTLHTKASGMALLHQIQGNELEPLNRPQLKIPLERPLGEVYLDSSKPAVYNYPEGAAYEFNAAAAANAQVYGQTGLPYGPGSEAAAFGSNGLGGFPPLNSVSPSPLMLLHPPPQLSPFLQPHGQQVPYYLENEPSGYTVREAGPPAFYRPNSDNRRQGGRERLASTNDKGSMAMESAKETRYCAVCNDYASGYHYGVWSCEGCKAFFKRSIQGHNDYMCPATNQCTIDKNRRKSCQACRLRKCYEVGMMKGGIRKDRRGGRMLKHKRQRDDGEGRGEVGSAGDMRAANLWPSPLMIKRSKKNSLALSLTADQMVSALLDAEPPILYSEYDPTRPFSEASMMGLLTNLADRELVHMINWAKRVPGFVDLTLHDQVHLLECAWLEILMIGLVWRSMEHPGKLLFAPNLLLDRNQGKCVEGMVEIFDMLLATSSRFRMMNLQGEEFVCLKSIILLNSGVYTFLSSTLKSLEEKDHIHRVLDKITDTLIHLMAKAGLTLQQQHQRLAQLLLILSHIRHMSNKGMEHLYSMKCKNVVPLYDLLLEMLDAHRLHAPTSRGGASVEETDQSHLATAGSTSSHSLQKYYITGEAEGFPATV

[4] = molecular target: Estrogen receptor alpha (Homo sapiens) (UniProt P03372); assay: Covalent binding affinity to estrogen receptor alpha assessed as change in molecular weight after 30 mins by electrospray ionization mass spectrometry
Estrogen receptor [5] = molecular target: T1, Estrogen receptor; assay: Inhibition of estradiol-induced coactivator peptide SRC binding to recombinant estrogen receptor by fluorescence polarization assay

SMILES | Activity [1] [%] | Activity [2] [%] | IC50 (Estrogen receptor [3]) [µM] | IC50 (Estrogen receptor [5]) [µM] | Activity [4]
N=C(N)N/N=C/C1=C(Cl)c2ccccc2CC1 | 50 | 50 | 3.6 | 11 | inactive
N=C(N)N/N=C/c1ccc2ccccc2c1 | 50 | 50 | 11.3 |  | 
N=C(N)N/N=C/C1=C(C(F)(F)F)c2ccccc2CC1 | 50 | 50 |  |  | 
N=C(N)N/N=C/C1=C(Cl)c2ccccc2C1 | 50 | 50 | 6.8 |  | 
N=C(N)N/N=C/C=C(\Cl)c1cccc2ccccc12 | 50 | 50 | ≥ 50 |  | 
CC1CC(/C=N/NC(=N)N)=C(Cl)c2ccccc21 (stereo not given) | 50 | 50 | 9.4 |  | 
N=C(N)N/N=C/c1cccc2ccccc12 | 50 | 50 | 11.5 |  | 
COC1=C(/C=N/NC(=N)N)CCc2ccccc21 | 50 | 50 | ≥ 50 |  | 
C/C(=N\NC(=N)N)C1=C(Cl)c2ccccc2CC1 | 50 | 50 |  |  | 

Further compounds by falling IC50 (Estrogen receptor [3]), results first:

Activity [1] [%] | Activity [2] [%] | IC50 (Estrogen receptor [3]) [µM] | IC50 (Estrogen receptor [5]) [µM] | SMILES | Activity [4]
50 | 50 | 5.9 |  | N=C(N)N/N=C/C1=C(Oc2ccccc2)c2ccccc2CC1 | 
50 | 50 | 4.9 |  | N=C(N)N/N=C/C1=C(Br)c2ccccc2CC1 | 
50 | 50 | 4.6 |  | N=C(N)N/N=C/C=C(\Cl)c1ccccc1 | 
50 | 50 | 4 | 16 | N=C(N)N/N=C/C1=C(Cl)c2ccccc2CCC1 | 
50 | 50 | 2.6 | 37 | CC(/C=N/NC(=N)N)=C(/Cl)c1ccccc1 | 
50 | 50 | 2.5 |  | Cc1cc(C)c2c(c1)C(Cl)=C(/C=N/NC(=N)N)CC2 | 
50 | 50 | 2.1 |  | COc1ccc2c(c1)CCC(/C=N/NC(=N)N)=C2Cl | 
